Test system: CD4+ T cells in spleen of EAE mice
Assay: Flow cytometry of spleen T cells of treated EAE mice
Assay type: in vivo, mouse
Conditions: 100 μg i.v.
Protocol: Figure 5 Dleu2-17aa attenuates EAE by promoting Treg cells. (A) Schematic diagram of MOG-induced EAE and treatment strategies with Dleu2-17aa, scrPEP, and Glatiramer. Mice received 100 μg of Dleu2-17aa or scrPEP every 3 days via i.v. injection or 150 μg of Glatiramer every day for seven times via s.c. on days 9 to 15. (B) Clinical scores were examined daily from day 9 using a scoring system ranging from 0 (no sign) to 5 (complete paralysis or dead). The x-axis represents experimental days, and the y-axis represents symptom severity (n = 8–9). (C) Representative Luxol fast blue (LFB) and hematoxylin and eosin staining (H&E) staining sections for treated EAE spinal cord. Scale bars: 100 μm. (D) Histopathology scores of inflammations and demyelination in treated EAE mice spinal cord using a scoring system ranging from 0 (no inflammatory cells or demyelination) to 4 (extensive inflammatory cells infiltration or confluent foci of demyelination) (n = 5–8). (E) Representative dot plots (left panel) and frequency (right panel) of CD44^hiCD62L^lo activated T cells, Foxp3^+ Treg cells, IL-17A^+ Th17 cells, and IFN-γ^+ Th1 cells gated on CD4^+ T cells in the spleen 14 days post immunization of MOG (n = 3). (F) Representative dot plots and frequency of CD4^+, Foxp3^+ Treg cells, and IFN-γ^+ Th1 cells gated on CD4^+ T cells in the CNS 14 days post immunization of MOG (n = 3). Data information: n indicates biological replicate. Error bars are mean ± SEM; *P < 0.05, **P < 0.01, and ***P < 0.001, n.s. indicates no significant difference. Statistical analysis was by two-way ANOVA for (B) and two-tailed Student’s t-test for (D–F). Source data are available online for this figure. TEXT PRINTED IN THE PICTURE: (E) scrPEP: Spleen: CD62L-PE-DF594 / CD44-PE: 78.2; Spleen: Foxp3-PE / CD4-APC: 7.38; Spleen: IFN-γ-Percp-cy5.5 / Il-17A-FITC: 4.67; Spleen: IFN-γ-Percp-cy5.5 / Il-17A-FITC: 0.18; Spleen: IFN-γ-Percp-cy5.5 / Il-17A-FITC: 94.7; Spleen: IFN-γ-Percp-cy5.5 / Il-17A-FITC: 0.44 | (E) Dleu2-17aa: Spleen: CD62L-PE-DF594 / CD44-PE: 37.2; Spleen: Foxp3-PE / CD4-APC: 12.9; Spleen: IFN-γ-Percp-cy5.5 / Il-17A-FITC: 2.83; Spleen: IFN-γ-Percp-cy5.5 / Il-17A-FITC: 0.26; Spleen: IFN-γ-Percp-cy5.5 / Il-17A-FITC: 96.1; Spleen: IFN-γ-Percp-cy5.5 / Il-17A-FITC: 0.79 | (F) scrPEP: CNS: FSC / CD4-APC: 9.03; CNS: Foxp3-PE / CD4-APC: 8.47; CNS: IFN-γ-Percp-cy5.5 / Il-17A-FITC: 22.9; CNS: IFN-γ-Percp-cy5.5 / Il-17A-FITC: 2.00; CNS: IFN-γ-Percp-cy5.5 / Il-17A-FITC: 69.7; CNS: IFN-γ-Percp-cy5.5 / Il-17A-FITC: 5.44 | (F) Dleu2-17aa: CNS: FSC / CD4-APC: 3.33; CNS: Foxp3-PE / CD4-APC: 15.5; CNS: IFN-γ-Percp-cy5.5 / Il-17A-FITC: 13.9; CNS: IFN-γ-Percp-cy5.5 / Il-17A-FITC: 2.65; CNS: IFN-γ-Percp-cy5.5 / Il-17A-FITC: 77.7; CNS: IFN-γ-Percp-cy5.5 / Il-17A-FITC: 5.79 DOUBTS OF THE COPYIST ABOUT THIS PICTURE: Panels E and F: the gate and quadrant numbers in the dot plots are printed with no measure or unit; the tissue heading and the axis labels of each plot are written in front of them. For the quadrant plots the order is upper left, upper right, lower left, lower right. / Panels E and F: the gate numbers are in small print, so 3, 5, 6, 8 and 9 are best readings: E scrPEP 78.2, 7.38, 4.67, 0.18, 94.7; E Dleu2-17aa 37.2, 12.9, 2.83, 0.26, 96.1, 0.79; F scrPEP 9.03, 8.47, 22.9, 69.7, 5.44; F Dleu2-17aa 3.33, 15.5, 13.9, 2.65, 5.79.
For active EAE immunization, myelin oligodendrocyte glycoprotein peptide (MOGp35–55, […], GenScript) was emulsified in complete Freund adjuvant (Sigma-Aldrich). An equivalent of 300 μg MOG peptide was injected per mouse subcutaneously followed by 200 ng of pertussis toxin (Merck-Calbiochem) injection intravenously on day 0 and day 2 of immunization. […]

ARGPARRMRGGRRRRLR [scrPEP, scrambled control peptide of Dleu2-17aa]
CD62LloCD44+/ CD4+ Cells(%) (replicate 1): 58.3%
Foxp3+/ CD4+ Cells (%) (replicate 1): 7.65%
IFN-γ+/ CD4+ Cells(%) (replicate 1): 4.58%
CD62LloCD44+/ CD4+ Cells(%) (replicate 2): 60.9%
Foxp3+/ CD4+ Cells (%) (replicate 2): 6.51%
IFN-γ+/ CD4+ Cells(%) (replicate 2): 4.35%
CD62LloCD44+/ CD4+ Cells(%) (replicate 3): 61.3%
Foxp3+/ CD4+ Cells (%) (replicate 3): 6.5%
IFN-γ+/ CD4+ Cells(%) (replicate 3): 4.11%
CD62LloCD44+/ CD4+ Cells(%) (replicate 4): 78.2%
Foxp3+/ CD4+ Cells (%) (replicate 4): 6.85%
IFN-γ+/ CD4+ Cells(%) (replicate 4): 4.28%
